According to US20250213533A1 (GH RESEARCH IRELAND LIMITED, priority 2022, published 2025):

Test system: patients with postpartum depression (PPD)
Assay: Clinical trial of inhaled 5-MeO-DMT (IDR) in postpartum depression; one patient so far, 6 mg then 12 mg
Conditions: 1 patient
Protocol: The single-arm, open-label clinical trial will involve 15 adult female patients with clinically diagnosed postpartum depression (PPD).
The second dose (12 mg) will only be administered if: • a. […] The 6 mg dose was safe and well-tolerated according to the investigator, • c. Any psychoactive effects (PsE) of the prior dose have subsided, and • d. Pre-dose vital parameters and forced expiratory volume in one second (FEV1) are in normal range, or if outside of the normal range, are not clinically significant according to the investigator. • 3. Similarly, a third dose (18 mg) will only be administered if: • a. […] The 12 mg dose was safe and well-tolerated according to the investigator, and • c. Any PsE of the prior dose have subsided, and • d. Pre-dose vital parameters and forced expiratory volume in one second (FEV1) are in normal range, or if outside of the normal range, are not clinically significant according to the investigator.
The patients will be assessed for a peak psychedelic experience (based on a patient-scored visual analogue scale, the PE scale), sedation, and other endpoints after dosing. Follow-up visits are planned for Day 1, and Day 7 after the dosing day.
The following criteria must be met by all patients considered for clinical trial participation: • 1. Is female and in the age range between 18 and 45 years (inclusive) at screening. • 2. Has a body mass index (BMI) in the range of 18.5 and 35 kg/m^2 (inclusive) at screening. • 3. Meets the trial criteria for PPD as assessed by a trial psychiatrist or registered psychologist: • a. Diagnosis of Major Depressive Disorder without psychotic features, confirmed by the Mini-International Neuropsychiatric Interview (MINI), with peri-partum onset that began no earlier than gestation and no later than the first 4 weeks postpartum. • b. Has a Montgomery-Åsberg Depression Rating Scale (MADRS) total score of equal to or greater than 28 at screening and pre-dose on Day 0. • 6. […] Patients must have a negative pregnancy test at screening and on the pre-test day (Day −1). • 5. Is willing to delay start of other antidepressant or anxiety medication until after the end of the trial at Day 7 and agrees to keep any psychotherapy unchanged during the trial.
A potential patient who meets any of the following key exclusion criteria will be excluded from participation in this trial: • 1. Has, based on history, psychiatric assessment, and evaluation of the MINI, a current or prior diagnosis of bipolar disorder, a manic or hypomanic episode, a psychotic disorder, Major Depressive Disorder (MDD) or other mood disorder with psychotic features, obsessive compulsive disorder, post-traumatic stress disorder (PTSD), autism spectrum disorder, borderline personality disorder, schizophrenia, delusional disorder, paranoid personality disorder, schizoaffective disorder, clinically significant intellectual disability, or any other psychiatric comorbidity that renders the patient unsuitable for the trial according to the investigator's judgment. • 2. Has one or more first or second degree relatives with a current or previously diagnosed bipolar disorder, psychotic disorder or other mood disorder (including MDD) with psychotic features. • 3. Is in the judgement of a trial psychiatrist or registered psychologist, at significant risk for suicide based on history, psychiatric assessment, and evaluation of suicidal ideation and suicidal behaviour based on the Columbia-Suicide Severity Rating Scale (C-SSRS). • 4. Has taken anti-depressive medication within 14 days or 5 half-lives (whichever is longer) prior to dosing (exception: within the last 5 weeks in the case of fluoxetine). • 5.

For `COc1ccc2[nH]cc(CCN(C)C)c2c1` [5-MeO-DMT], the “ECG (3 hours), safety laboratory analyses (7 days), CADSS (3 hours, 1 day, 7 days)” value was “unremarkable”, the “standard criteria for MADRS remission (total score equal or less than 10)” value was “fulfilled” and the “standard criteria for MADRS response (at least 50% improvement from baseline)” value was “fulfilled”. For the same molecule, the “time to clinical response after administration” value was no more than 2 h, the “tolerability of the inhalation procedure” value was “well tolerated with no inhalation-related adverse events” and the “MADRS Apparent sadness improvement” value (2hr) was 5. For the same molecule, the “MADRS Apparent sadness score” value (2hr) was 0, the “MADRS Concentration Difficulties improvement” value (2hr) was 0 and the “MADRS Concentration Difficulties score” value (2hr) was 0. The “MADRS Inability to Feel improvement” value (2hr) was 3, the “MADRS Inability to Feel score” value (2hr) was 0 and the “MADRS Inner Tension improvement” value (2hr) was 5. For the same molecule, the “MADRS Inner Tension score” value (2hr) was 0, the “MADRS Lassitude improvement” value (2hr) was 3 and the “MADRS Lassitude score” value (2hr) was 0. The “MADRS Pessimistic Thoughts improvement” value (2hr) was 4, the “MADRS Pessimistic Thoughts score” value (2hr) was 0 and the “MADRS Reduced Sleep improvement” value (2hr) was 0. For the same molecule, the “MADRS Reduced Sleep score” value (2hr) was 5, the “MADRS Reduced appetite improvement” value (2hr) was 0 and the “MADRS Reduced appetite score” value (2hr) was 0. The “MADRS Reported sadness improvement” value (2hr) was 4, the “MADRS Reported sadness score” value (2hr) was 0 and the “MADRS Suicidal Thoughts improvement” value (2hr) was 0. For the same molecule, the “MADRS Suicidal Thoughts score” value (2hr) was 0, the “BIMF TOTAL score” value (Day 0) was 92 and the “BIMF item 1 (I am a good mother) score” value (Day 0) was 6. For the same molecule, the “BIMF item 2 (I feel rested) score” value (Day 0) was 0, the “BIMF item 3 (comfortable with the way I've chosen to feed my baby) score” value (Day 0) was 6 and the “BIMF item 4 (My baby and I understand each other) score” value (Day 0) was 5. For the same molecule, the “BIMF item 5 (able to relax and enjoy time with my baby) score” value (Day 0) was 5, the “BIMF item 6 (people I can trust to care for my baby when I need a break) score” value (Day 0) was 6 and the “BIMF item 8 (getting enough adult interaction) score” value (Day 0) was 6. The “BIMF item 9 (getting enough encouragement from other people) score” value (Day 0) was 5, the “BIMF item 10 (trust my own feelings (instincts) in taking care of my baby) score” value (Day 0) was 5 and the “BIMF item 11 (take a little time each week to do something for myself) score” value (Day 0) was 5. For the same molecule, the “BIMF item 12 (taking good care of my baby's physical needs) score” value (Day 0) was 6, the “BIMF item 13 (taking good care of my physical needs) score” value (Day 0) was 4 and the “BIMF item 14 (good decisions about my baby's health and well being) score” value (Day 0) was 6. For the same molecule, the “BIMF item 15 (My baby and I are getting into a routine) score” value (Day 0) was 5, the “BIMF item 16 (I worry about how other people judge me (as a mother)) score” value (Day 0) was 3 and the “BIMF item 17 (able to take care of my baby and my other responsibilities) score” value (Day 0) was 5. The “BIMF item 18 (Anxiety or worry often interferes with my mothering ability) score” value (Day 0) was 2, the “BIMF item 19 (getting better at taking care of my baby) score” value (Day 0) was 0 and the “BIMF item 20 (satisfied with the job I am doing as a new mother) score” value (Day 0) was 6. The “adverse events (cramping left abdominal pain, headache)” value (Day 0) was “mild, short-lasting and resolved spontaneously”, the “BIMF functional domain Adjustment score” value (Day 0, maximum possible 12) was 5 and the “BIMF functional domain Infant Care score” value (Day 0, maximum possible 12) was 12. For the same molecule, the “BIMF functional domain Mother-Child Interaction score” value (Day 0, maximum possible 18) was 15, the “BIMF functional domain Self Care score” value (Day 0, maximum possible 18) was 9 and the “BIMF functional domain Social Support score” value (Day 0, maximum possible 18) was 17. For the same molecule, the “BIMF functional domain Management score” value (Day 0, maximum possible 36) was 28, the “BIMF functional domain Psychological Well-being score” value (Day 0, maximum possible 60) was 44 and the “BPRS Anxiety improvement” value (Day 1) was 6. For the same molecule, the “BPRS Anxiety score” value (Day 1) was 1, the “BPRS Blunted affect improvement” value (Day 1) was 0 and the “BPRS Blunted affect score” value (Day 1) was 1. The “BPRS Conceptual disorganization improvement” value (Day 1) was 0, the “BPRS Conceptual disorganization score” value (Day 1) was 1 and the “BPRS Depressive Mood improvement” value (Day 1) was 5. The “BPRS Depressive Mood score” value (Day 1) was 1, the “BPRS Disorientation improvement” value (Day 1) was 0 and the “BPRS Disorientation score” value (Day 1) was 1. The “BPRS Emotional withdrawal improvement” value (Day 1) was 4, the “BPRS Emotional withdrawal score” value (Day 1) was 1 and the “BPRS Excitement improvement” value (Day 1) was 1. For the same molecule, the “BPRS Excitement score” value (Day 1) was 1, the “BPRS Grandiosity improvement” value (Day 1) was 0 and the “BPRS Grandiosity score” value (Day 1) was 1. For the same molecule, the “BPRS Guilt feelings improvement” value (Day 1) was 5, the “BPRS Guilt feelings score” value (Day 1) was 1 and the “BPRS Hallucinatory behaviour improvement” value (Day 1) was 0. For the same molecule, the “BPRS Hallucinatory behaviour score” value (Day 1) was 1, the “BPRS Hostility improvement” value (Day 1) was 0 and the “BPRS Hostility score” value (Day 1) was 1. For the same molecule, the “BPRS Mannerisms and Posturing improvement” value (Day 1) was 0, the “BPRS Mannerisms and Posturing score” value (Day 1) was 1 and the “BPRS Motor retardation improvement” value (Day 1) was 0. For the same molecule, the “BPRS Motor retardation score” value (Day 1) was 1, the “BPRS Somatic Concern improvement” value (Day 1) was 5 and the “BPRS Somatic Concern score” value (Day 1) was 1. For the same molecule, the “BPRS Suspiciousness improvement” value (Day 1) was 0, the “BPRS Suspiciousness score” value (Day 1) was 1 and the “BPRS Tension score” value (Day 1) was 1. The “BPRS Uncooperativeness improvement” value (Day 1) was 0, the “BPRS Uncooperativeness score” value (Day 1) was 1 and the “BPRS Unusual Thought Content improvement” value (Day 1) was 0. For the same molecule, the “BPRS Unusual Thought Content score” value (Day 1) was 1, the “MADRS Apparent sadness improvement” value (Day 1) was 5 and the “MADRS Apparent sadness score” value (Day 1) was 0. The “MADRS Concentration Difficulties improvement” value (Day 1) was 0, the “MADRS Concentration Difficulties score” value (Day 1) was 0 and the “MADRS Inability to Feel improvement” value (Day 1) was 3. For the same molecule, the “MADRS Inability to Feel score” value (Day 1) was 0, the “MADRS Inner Tension improvement” value (Day 1) was 5 and the “MADRS Inner Tension score” value (Day 1) was 0. The “MADRS Lassitude improvement” value (Day 1) was 3, the “MADRS Lassitude score” value (Day 1) was 0 and the “MADRS Pessimistic Thoughts improvement” value (Day 1) was 4. The “MADRS Pessimistic Thoughts score” value (Day 1) was 0, the “MADRS Reduced Sleep improvement” value (Day 1) was 5 and the “MADRS Reduced Sleep score” value (Day 1) was 0. The “MADRS Reduced appetite improvement” value (Day 1) was 0, the “MADRS Reduced appetite score” value (Day 1) was 0 and the “MADRS Reported sadness improvement” value (Day 1) was 4. For the same molecule, the “MADRS Reported sadness score” value (Day 1) was 0, the “MADRS Suicidal Thoughts improvement” value (Day 1) was 0 and the “MADRS Suicidal Thoughts score” value (Day 1) was 0. For the same molecule, the “BIMF item 1 (I am a good mother) score” value (Day 7) was 6, the “BIMF item 2 (I feel rested) score” value (Day 7) was 2 and the “BIMF item 3 (comfortable with the way I've chosen to feed my baby) score” value (Day 7) was 6. For the same molecule, the “BIMF item 4 (My baby and I understand each other) score” value (Day 7) was 5, the “BIMF item 5 (able to relax and enjoy time with my baby) score” value (Day 7) was 6 and the “BIMF item 6 (people I can trust to care for my baby when I need a break) score” value (Day 7) was 6. For the same molecule, the “BIMF item 8 (getting enough adult interaction) score” value (Day 7) was 6, the “BIMF item 9 (getting enough encouragement from other people) score” value (Day 7) was 6 and the “BIMF item 10 (trust my own feelings (instincts) in taking care of my baby) score” value (Day 7) was 6.
